Measurements as given in publication PMC11865978, “Cellular Activity of CQWW Nullomer-Derived Peptides” (ACS Omega, 2025).

What was measured:
Assay type in all cases: cell-based, human
[1] = test system: GCGR-NS9FB_B; details: 72 h
Experimental: (§1) Peptides were tested in an automated image-based high-content[42] cell painting[43],[44] assay that was originally developed to explore the mechanism of action of pharmacological and genetic perturbations within cells,[45] as well as a live cell imaging assay against six patient-derived glioblastoma cell lines (GCGR-E13, GCGR-E28, GCGR-E21, GCGR-E57, GCGR-E31, and GCGR-E34), covering classical, mesenchymal, and proneural subtypes, respectively (see Methods and Figure 1B–D), along with a healthy human fetal neuronal stem cell line (GCGR-NS9FB_B).
(§2) Cell survival was quantified by nuclei counts from the Hoechst dye-stained nuclei and IC50 values calculated along with 95% confidence intervals (Figure 1B; see Table S2 for full details). […]
(§3) High Content Phenotypic Screening assays
(§4) Cell lines (glioma stem cell lines and normal foetal neural stem cells) were seeded on laminin (10 µg/mL) coated 384-well plates (Greiner Bio-One, 781091) at 1,000 cells/well and incubated overnight at 37 °C and 5% CO2. Aqueous peptide solutions (10 mM) were further diluted to 1 mM in water containing 10 % glycerol and 0.01 % TX-100. Cells were dosed using a D300 digital dispenser (Tecan) by 10-point dose response (30 µM – 1 µM) in triplicate and with aqueous glycerol/TX-100 as control. The cells were placed in an IncuCyte live cell imager (Essen BioScience) and imaged every three hours for 72 hours. Prior to fixation, the plates were removed from the IncuCyte and stained with Mitrotracker DeepRed (Invitrogen, M22426, 300 nM, 30 minutes). Cells were then fixed using 4 % formaldehyde and permeabilized with 0.1 % TX-100 in PBS. The cells were stained with ‘Cell Painting’ […]
(§5) assay reagents1: Hoechst 33342 (10 mg/mL stock, Molecular Probes, 1:5000), SYTO14 […]
(§6) BSA/PBS. The plates were imaged using an ImageXpress high content microscope (Molecular Devices). Cells were imaged with a 20× objective, covering 6 fields-of-view in each well. The data was then analyzed using a custom CellProfiler software pipeline using the University of Edinburgh high performance computing cluster. Dose response plots were calculated using HC StratomineR (corelifeanalytics.com). Nuclei count data was analyzed separately to generate cell survival metrics (normalized to aqueous glycerol/TX -100 control). […]

[2] = test system: GCGR-E57; details: 72 h
Experimental: as §1, §2, §3, §4, §5, §6

[3] = test system: patient-derived glioblastoma cell lines; experiment: Cell survival by nuclei counts, summarised across cell lines; details: ratio of nuclei-count IC50s
Experimental: as §1, §2, §3
Cell lines (glioma stem cell lines and normal foetal neural stem cells) were seeded on laminin (10 µg/mL) coated 384-well plates (Greiner Bio-One, 781091) at 1,000 cells/well and incubated overnight at 37 °C and 5% CO2. […]
BSA/PBS. […] The data was then analyzed using a custom CellProfiler software pipeline using the University of Edinburgh high performance computing cluster. Dose response plots were calculated using HC StratomineR (corelifeanalytics.com). Nuclei count data was analyzed separately to generate cell survival metrics (normalized to aqueous glycerol/TX -100 control). […]

[4] = test system: mitochondria, all cell lines including GCGR-NS9FB_B; experiment: Mitotracker stain intensity in cell painting assay; details: compared with Peptide 15 control
Experimental: Figure S4 – Network analysis (STRING) showing protein interactions resulting from treatment with […]
2nd shell) <10. Top ranked Gene Ontology (GO terms) for biological processes is listed (top right) with Log[False Discovery Rate] indicated.
as §3
Cell lines (glioma stem cell lines and normal foetal neural stem cells) were seeded on laminin (10 µg/mL) coated 384-well plates (Greiner Bio-One, 781091) at 1,000 cells/well and incubated overnight at 37 °C and 5% CO2. Aqueous peptide solutions (10 mM) were further diluted to 1 mM in water containing 10 % glycerol and 0.01 % TX-100. […]
(§7) BSA/PBS. […] The data was then analyzed using a custom CellProfiler software pipeline using the University of Edinburgh high performance computing cluster. Dose response plots were calculated using HC StratomineR (corelifeanalytics.com). Nuclei count data was analyzed separately to generate cell survival metrics (normalized to aqueous glycerol/TX -100 control).
(§8) Dose response curves were fitted and IC50 values calculated using Prism GraphPad (graphpad.com). […]
Figure S5 – The CellProfiler-derived feature “MedianNucleiIntensityMADIntensityW5”, reading out mitotracker stain intensity observed in cell nuclei after treatment with the Peptide 2 nullomer (blue) and Peptide 15 (control). […]

[5] = test system: GCGR-E13; experiment: Multiparametric cell painting phenotypic profile (PCA); details: 1-16 μM, compared with control polyarginine peptide 15 and DMSO
Experimental: Figure 1 (A) 3D model of the CQWW peptide with residue labels shown in red. (B) Dose-dependent effect of peptide 2 (RRRRRCQWW) on cell survival across a range of cell lines, with fitted IC50 values shown below. (C) Representative live cell brightfield images of peptide 2 (RRRRRCQWW, 6 μM) against the glioblastoma stem cell line (GCGR-E28) versus normal neural stem cells (GCGR-NS9FB_B) after 3 h of incubation. (D) 3D principal component analysis (PCA 1, 2, and 3) from multiparametric cell painting image analysis of the GCGR-E13 cell line. […]
The phenotypic effect of the peptides was visualized by live cell imaging (Figure 1C, IncuCyte live cell imager) and also quantified via image analysis of cells labeled with the cell painting reagents (see Supporting Information) followed by image analysis using Cell Profiler (cellprofiler.org). […]
as §7, §8

## H-RRRRRCQWW-NH2 [Peptide 2]
[1]
  IC50: 7.9 µM
[2]
  IC50: 4.3 µM
[3]
  selectivity for reduction in nuclei counts, glioblastoma stem cells compared to normal neural stem cells (GCGR-NS9FB_B): 1.5- to 2 fold
[4]
  mitotracker stain intensity in cell nuclei (MedianNucleiIntensityMADIntensityW5): reduce mitotracker intensity in a dose dependent manner
  mitotracker stain intensity in cells (MedianCellsIntensityMeanIntensityW5): reduce mitotracker intensity in a dose dependent manner
[5]
  phenotypic profile in 3D principal component plot of cell painting features: strong, dose-dependent phenotype
